US8846730B2, “Compounds as cannabinoid receptor ligands” (priority 2008, dated 2014)
pEC50, pKi: −log10 of the molar value. Like-named read-outs stand apart in the source and are kept apart here.

Experiments:
human CB2 receptors = human CB2 receptors (Homo sapiens (Human), UniProt P34972); experiment: human CB2 radioligand binding assay ([3H]CP 55,940 competition)
Description: (§1) The CB1 and CB2 radioligand binding assays described herein are utilized to ascertain the affinity of compounds of the present application for binding to CB2 relative to CB1 receptors.
HEK293 cells stably expressing human CB2 receptors were grown until a confluent monolayer was formed. Briefly, the cells were harvested and homogenized in TE buffer (50 mM Tris-HCl, 1 mM MgCl2, and 1 mM EDTA) using a polytron for 2×10 second bursts in the presence of protease inhibitors, followed by centrifugation at 45,000×g for 20 minutes. The final membrane pellet was re-homogenized in storage buffer (50 mM Tris-HCl, 1 mM MgCl2, and 1 mM EDTA and 10% sucrose) and frozen at −78° C. until used. Saturation binding reactions were initiated by the addition of membrane preparation (protein concentration of 5 μg/well for human CB2) into wells of a deep well plate containing [^3H]CP 55,940 (120 Ci/mmol, a nonselective CB agonist commercially available from Tocris) in assay buffer (50 mM Tris, 2.5 mM EDTA, 5 mM MgCl2, and 0.5 mg/mL fatty acid free BSA, pH 7.4). After 90 min incubation at 30° C., binding reaction was terminated by the addition of 300 μL/well of cold assay buffer followed by rapid vacuum filtration through a UniFilter-96 GF/C filter plates (pre-soaked in 1 mg/mL BSA for 2 hours). The bound activity was counted in a TopCount using Microscint-20. Saturation experiments were conducted with twelve concentrations of [^3H]CP 55,940 ranging from 0.01 to 8 nM. Competition experiments were conducted with 0.5 nM [^3H]CP 55,940 and five concentrations (0.01 nM to 10 μM) of displacing ligands. The addition of 10 μM unlabeled CP 55,940 (Tocris, Ellisville, Mo.) was used to assess nonspecific binding.

[1] = molecular target: rat CB2 receptors (HEK cells) (Rattus norvegicus (Rat), UniProt Q9QZN9); experiment: rat CB2 cyclase functional assay (HitHunter cAMP); type: cell-based
Description: (§2) The cyclase functional assays were performed using the HitHunter™ cAMP assay kit from DiscoveRx (Fremont, Calif.) according to vendor's protocol. Briefly, HEK cells expressing CB2 or CB1 receptors (rat or human) were detached using cell dissociation buffer (Invitrogen, Carlsbad, Calif.), dispersed and placed in suspension at 10,000 cells per well in 96 well plates prior to the assay. Cell suspensions were incubated at 37° C. for 20 min with variable concentrations of test ligands and or 10 μM CP 55,940-positive control in the presence of a fixed concentration of forskolin (18 μM for rat CB2 and 37 μM for rat CB1) in Dulbescco's phosphate-buffered saline (Invitrogen, Carlsbad, Calif.) supplemented with bovine serum albumin (0.01% final concentration). The reactions were terminated by the addition of lysis buffer and the luminescence was detected following the procedure according to the manufacturer's instructions. EC50 values were calculated using sigmoidal dose-response curve fitting from Prism (GraphPad).

rat CB2 receptors = rat CB2 receptors (Rattus norvegicus (Rat), UniProt Q9QZN9); experiment: rat CB2 radioligand binding assay ([3H]CP 55,940 competition); settings: HEK293 membranes, 0.5 nM [3H]CP 55,940
Description: as §1
HEK293 cells stably expressing rat CB2 receptors were grown until a confluent monolayer was formed. Briefly, the cells were harvested and homogenized in TE buffer (50 mM Tris-HCl, 1 mM MgCl2, and 1 mM EDTA) using a polytron for 2×10 second bursts in the presence of protease inhibitors, followed by centrifugation at 45,000×g for 20 minutes. The final membrane pellet was re-homogenized in storage buffer (50 mM Tris-HCl, 1 mM MgCl2, and 1 mM EDTA and 10% sucrose) and frozen at −78° C. until used. Saturation binding reactions were initiated by the addition of membrane preparation (protein concentration of 20 μg/well for rat CB2) into wells of a deep well plate containing [^3H]CP 55,940 (120 Ci/mmol, a nonselective CB agonist commercially available from Tocris) in assay buffer (50 mM Tris, 2.5 mM EDTA, 5 mM MgCl2, and 0.5 mg/mL fatty acid free BSA, pH 7.4). After 45 min incubation at 30° C., binding reaction was terminated by the addition of 300 μl/well of cold assay buffer followed by rapid vacuum filtration through a UniFilter-96 GF/C filter plates (pre-soaked in 1 mg/mL BSA for 2 hours). The bound activity was counted in a TopCount using Microscint-20. Saturation experiments were conducted with twelve concentrations of [^3H]CP 55,940 ranging from 0.01 to 8 nM. Competition experiments were conducted with 0.5 nM [^3H]CP 55,940 and five concentrations of displacing ligands selected from the range of 0.01 nM to 10 μM. The addition of 10 μM unlabeled CP 55,940 (Tocris, Ellisville, Mo.) was used to assess nonspecific binding.

[2] = molecular target: rat CB1 receptors (HEK cells) (Rattus norvegicus (Rat), UniProt P20272); experiment: rat CB1 cyclase functional assay (HitHunter cAMP); type: cell-based
Sequence of rat CB1 receptors (HEK cells) (P20272 whole entry): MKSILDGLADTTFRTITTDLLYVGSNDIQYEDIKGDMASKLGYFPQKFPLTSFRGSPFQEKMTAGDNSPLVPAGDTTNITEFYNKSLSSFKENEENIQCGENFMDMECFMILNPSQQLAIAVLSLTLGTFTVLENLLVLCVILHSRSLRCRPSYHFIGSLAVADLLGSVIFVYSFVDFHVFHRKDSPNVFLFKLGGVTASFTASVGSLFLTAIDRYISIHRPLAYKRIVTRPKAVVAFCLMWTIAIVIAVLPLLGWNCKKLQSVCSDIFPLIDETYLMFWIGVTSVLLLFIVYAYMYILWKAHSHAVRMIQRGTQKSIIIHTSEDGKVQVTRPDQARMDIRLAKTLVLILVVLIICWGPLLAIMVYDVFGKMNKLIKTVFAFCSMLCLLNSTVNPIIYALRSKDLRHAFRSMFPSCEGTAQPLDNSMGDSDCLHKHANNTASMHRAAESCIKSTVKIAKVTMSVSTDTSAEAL
Description: as §2

[3] = HEK293 membranes, 0.5 nM [3H]CP 55,940, read-out: human CB2 (Ki)
[4] = HEK cells, forskolin 18 μM, read-out: rat CB2 cyclase (EC50)

Sequence of human CB2 receptors (P34972 whole entry): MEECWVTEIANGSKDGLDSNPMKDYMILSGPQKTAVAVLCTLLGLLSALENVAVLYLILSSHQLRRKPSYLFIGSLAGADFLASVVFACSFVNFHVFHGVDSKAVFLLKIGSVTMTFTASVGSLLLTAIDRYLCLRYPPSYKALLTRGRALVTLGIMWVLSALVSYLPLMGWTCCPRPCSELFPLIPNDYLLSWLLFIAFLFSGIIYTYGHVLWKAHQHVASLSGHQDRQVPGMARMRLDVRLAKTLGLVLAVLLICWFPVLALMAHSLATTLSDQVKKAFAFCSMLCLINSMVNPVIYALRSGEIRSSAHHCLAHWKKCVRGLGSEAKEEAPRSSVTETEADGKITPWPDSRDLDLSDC

Compound | pKi (human CB2 receptors; [3]) | pEC50 [1] | pKi (rat CB2 receptors) | pEC50 [2] | pEC50 [1, 4] | pKi (human CB2 receptors) | pEC50 ([2]; HEK cells, forskolin 37 μM, read-out: rCB1 cyclase (EC50))
CN1CC[C@H](COc2ccc(C(F)(F)F)cc2C(=O)/N=c2\sc(C(C)(C)C)cn2C[C@H]2CCCO2)C1 [Example 31, N-[(2Z)-5-tert-butyl-3-[(2R)-tetrahydrofuran-2-ylmethyl]-1,3-thiazol-2(3H)-ylidene]-2-{[(3 S)-1-methylpyrrolidin-3-yl]methoxy}-5-(trifluoromethyl)benzamide] | 7.04 | 8.45 | 7.08 | 4.97 |  |  | 
CC(C)(C)c1cn(C[C@H]2CCCO2)/c(=N/C(=O)c2cc(C(F)(F)F)ccc2OCc2ccn[nH]2)s1 [Example 56, N-[(2Z)-5-tert-butyl-3-[(2R)-tetrahydrofuran-2-ylmethyl]-1,3-thiazol-2(3H)-ylidene]-2-(1H-pyrazol-5-ylmethoxy)-5-(trifluoromethyl)benzamide] | 7.96 |  | 8.29 | 5.52 | 9.12 |  | 
CN1CC(COc2ccc(C(F)(F)F)cc2C(=O)/N=c2\sc(C(C)(C)C)cn2C[C@H]2CCCO2)C1 [Example 12, N-[(2Z)-5-tert-butyl-3-[(2R)-tetrahydrofuran-2-ylmethyl]-1,3-thiazol-2(3H)-ylidene]-2-[(1-methylazetidin-3-yl)methoxy]-5-(trifluoromethyl)benzamide] | 6.68 |  | 7.55 | 4.97 | 8.68 |  | 
CC(C)(C)c1cn(C[C@H]2CCCO2)/c(=N/C(=O)c2cc(C(F)(F)F)ccc2OCc2nccs2)s1 [Example 38, N-[(2Z)-5-tert-butyl-3-[(2R)-tetrahydrofuran-2-ylmethyl]-1,3-thiazol-2(3H)-ylidene]-2-(1,3-thiazol-2-ylmethoxy)-5-(trifluoromethyl)benzamide] | 8.26 | 9.48 | 8.60 | 5.70 |  |  | 
CC(C)(C)c1cn(C[C@H]2CCCO2)/c(=N/C(=O)c2cc(C(F)(F)F)ccc2OC[C@@H]2CCCO2)s1 [Example 23, N-[(2Z)-5-tert-butyl-3-[(2R)-tetrahydrofuran-2-ylmethyl]-1,3-thiazol-2(3H)-ylidene]-2-[(2S)-tetrahydrofuran-2-ylmethoxy]-5-(trifluoromethyl)benzamide] | 9.30 | 9.85 | 9.52 | 6.03 |  |  | 
CC(C)(C)c1cn(C[C@H]2CCCO2)/c(=N/C(=O)c2cc(C(F)(F)F)ccc2OC[C@H](N)CO)s1 [Example 69, 2-{[(2R)-2-amino-3-hydroxypropyl]oxy}-N-[(2Z)-5-tert-butyl-3-[(2R)-tetrahydrofuran-2-ylmethyl]-1,3-thiazol-2(3H)-ylidene]-5-(trifluoromethyl)benzamide] |  |  | 9.05 | 5.79 | 9.85 | 8.44 | 
CC(C)(C)c1cn(C[C@H]2CCCO2)/c(=N/C(=O)c2cc(C(F)(F)F)ccc2OCc2cccnc2)s1 [Example 21, N-[(2Z)-5-tert-butyl-3-[(2R)-tetrahydrofuran-2-ylmethyl]-1,3-thiazol-2(3H)-ylidene]-2-(pyridin-3-ylmethoxy)-5-(trifluoromethyl)benzamide] | 7.89 | 9.68 | 8.00 | 5.21 |  |  | 
CC(C)(C)c1cn(C[C@H]2CCCO2)/c(=N/C(=O)c2cc(C(F)(F)F)ccc2OCc2cnco2)s1 [Example 37, N-[(2Z)-5-tert-butyl-3-[(2R)-tetrahydrofuran-2-ylmethyl]-1,3-thiazol-2(3H)-ylidene]-2-(1,3-oxazol-5-ylmethoxy)-5-(trifluoromethyl)benzamide] | 7.59 | 9.30 | 8.05 | 5.12 |  |  | 
CN1CCC[C@H]1COc1ccc(C#N)cc1C(=O)/N=c1\sc(C(C)(C)C)cn1C[C@H]1CCCO1 [Example 59, N-[(2Z)-5-tert-butyl-3-[(2R)-tetrahydrofuran-2-ylmethyl]-1,3-thiazol-2(3H)-ylidene]-5-cyano-2-{[(2S)-1-methylpyrrolidin-2-yl]methoxy}benzamide] | 7.37 |  | 8.03 | 5.64 | 9.89 |  | 
CN1CCCC[C@@H]1COc1ccc(C(F)(F)F)cc1C(=O)/N=c1\sc(C(C)(C)C)cn1C[C@H]1CCCO1 [Example 7, N-[(2Z)-5-tert-butyl-3-[(2R)-tetrahydrofuran-2-ylmethyl]-1,3-thiazol-2(3H)-ylidene]-2-{[(2R)-1-methylpiperidin-2-yl]methoxy}-5-(trifluoromethyl)benzamide] | 7.48 |  | 7.72 | 5.33 | 9.42 |  | 
CC(=NOc1ccc(C(F)(F)F)cc1C(=O)/N=c1\sc(C(C)(C)C)cn1C[C@H]1CCCO1)C(F)(F)F [Example 80, N-[(2Z)-5-tert-butyl-3-[(2R)-tetrahydrofuran-2-ylmethyl]-1,3-thiazol-2(3H)-ylidene]-5-(trifluoromethyl)-2-({[2,2,2-trifluoro-1-methylethylidene]amino}oxy)benzamide] | 8.36 |  | 8.32 | < 4.57 |  |  | 
CC(C)(C)/C(COc1ccc(C(F)(F)F)cc1C(=O)/N=c1\sc(C(C)(C)C)cn1C[C@H]1CCCO1)=N/O [Example 70, N-[(2Z)-5-tert-butyl-3-[(2R)-tetrahydrofuran-2-ylmethyl]-1,3-thiazol-2(3H)-ylidene]-2-{[(2Z)-2-(hydroxyimino)-3,3-dimethylbutyl]oxy}-5-(trifluoromethyl)benzamide] | 7.92 |  | 8.09 | < 4.57 |  |  | 
CC(C)(C)NNc1ccc(C(F)(F)F)cc1C(=O)/N=c1\sc(C(C)(C)C)cn1C[C@H]1CCCO1 [Example 39, 2-(2-tert-butylhydrazino)-N-[(2Z)-5-tert-butyl-3-[(2R)-tetrahydrofuran-2-ylmethyl]-1,3-thiazol-2(3H)-ylidene]-5-(trifluoromethyl)benzamide] | 8.43 |  | 8.77 |  |  |  | < 4.57
CC(C)(C)NOc1ccc(C(F)(F)F)cc1C(=O)/N=c1\sc(C(C)(C)C)cn1C[C@H]1CCCO1 [Example 65, 2-[(tert-butylamino)oxy]-N-[(2Z)-5-tert-butyl-3-[(2R)-tetrahydrofuran-2-ylmethyl]-1,3-thiazol-2(3H)-ylidene]-5-(trifluoromethyl)benzamide] | 8.74 |  | 9.10 | < 4.57 |  |  | 
CC(C)(C)C(=O)COc1ccc(C(F)(F)F)cc1C(=O)/N=c1\sc(C(C)(C)C)cn1C[C@H]1CCCO1 [Example 72, N-[(2Z)-5-tert-butyl-3-[(2R)-tetrahydrofuran-2-ylmethyl]-1,3-thiazol-2(3H)-ylidene]-2-(3,3-dimethyl-2-oxobutoxy)-5-(trifluoromethyl)benzamide] | 9.05 |  | 9.52 | < 4.57 |  |  | 
